According to patent publication US9145372B2, “Pyridazine derivatives, compositions and methods for treating cognitive impairment” (AGENEBIO, INC., priority 2010, dated 2015):
“Also recorded” adds a separate entry of the source.

Experiments:
GABAA α5 receptor = GABAA α5 receptor (Rattus norvegicus, UniProt P18508+P19969); test: GABAA α5 receptor occupancy in vivo with Ro 15-4513 tracer (hippocampus vs cerebellum)
Source text: Adult male Long Evans rats (265-295 g, Charles River, Portage, Mich., n=4/group) were used for GABAA α5 receptor occupancy studies. Rats were individually housed in ventilated stainless-steel racks on a 12:12 light/dark cycle. Food and water were available ad libitum.
Ro 15-4513 was used as a receptor occupancy (RO) tracer for GABAA α5 receptor sites in the hippocampus and cerebellum. Ro 15-4513 was chosen as the tracer based on its selectivity for GABAA α5 receptors relative to other alpha subunit containing GABAA receptors and because it has been successfully used for GABAA α5 RO studies in animals and humans (see, e.g., Lingford-Hughes et al., J. Cereb. Blood Flow Metab. 22:878-89 (2002); Pym et al, Br. J. Pharmacol. 146: 817-825 (2005); and Maeda et al., Synapse 47: 200-208 (2003)). Ro 15-4513 (1 μg/kg), was dissolved in 25% hydroxyl-propyl beta-cyclodextrin and administered i.v. 20′ prior to the RO evaluations. Methyl 3,5-diphenylpyridazine-4-carboxylate (0.1-10 mg/kg) was synthesized by Nox Pharmaceuticals (India) and was dissolved in 25% hydroxyl-propyl beta-cyclodextrin and administered i.v. 15′ prior to tracer injection.
The rats were sacrificed by cervical dislocation 20′ post tracer injection. The whole brain was rapidly removed, and lightly rinsed with sterile water. Trunk blood was collected in EDTA coated eppendorf tubes and stored on wet ice until study completion. Hippocampus and cerebellum were dissected and stored in 1.5 ml eppendorf tubes, and placed on wet ice until tissue extraction. In a drug naïve rat, six cortical brain tissues samples were collected for use in generating blank and standard curve samples.
Acetonitrile containing 0.1% formic acid was added to each sample at a volume of four times the weight of the tissue sample. For the standard curve (0.1-30 ng/g) samples, a calculated volume of standard reduced the volume of acetonitrile. The sample was homogenized (FastPrep-24, Lysing Matrix D; 5.5 m/s, for 60 seconds or 7-8 watts power using sonic probe dismembrator; Fisher Scientific) and centrifuged for 16-minutes at 14,000 rpm. The (100 μl) supernatant solution was diluted by 300 μl of sterile water (pH 6.5). This solution was then mixed thoroughly and analyzed via LC/MS/MS for […] (tracer) and methyl 3,5-diphenylpyridazine-4-carboxylate.
Receptor occupancy was determined by the ratio method which compared occupancy in the hippocampus (a region of high GABAA α5 receptor density) with occupancy in the cerebellum (a region with low GABAA α5 receptor density) and additionally by a high dose of the GABAA α5 negative allosteric modulator L-655,708 (10 mg/kg, i.v.) to define full occupancy.

α5-containing GABAA R = target: T1, α5-containing GABAA R (Homo sapiens, UniProt P18507+P31644); conditions: at GABA EC20; van Niel et al.; cited from earlier work
T1 sequence (P31644 32-462): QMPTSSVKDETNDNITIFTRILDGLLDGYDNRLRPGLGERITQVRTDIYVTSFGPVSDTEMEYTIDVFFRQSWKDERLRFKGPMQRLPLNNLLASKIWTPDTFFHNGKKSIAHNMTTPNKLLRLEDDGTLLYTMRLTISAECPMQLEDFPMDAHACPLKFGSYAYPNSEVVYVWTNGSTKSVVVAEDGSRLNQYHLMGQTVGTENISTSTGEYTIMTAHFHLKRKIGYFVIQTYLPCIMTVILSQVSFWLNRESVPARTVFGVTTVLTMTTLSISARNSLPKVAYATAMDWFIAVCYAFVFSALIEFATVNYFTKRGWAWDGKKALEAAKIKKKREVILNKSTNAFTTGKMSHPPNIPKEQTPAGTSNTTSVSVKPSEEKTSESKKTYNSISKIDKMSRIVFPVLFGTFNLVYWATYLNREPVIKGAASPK
T1 sequence (P28472 26-473 partner): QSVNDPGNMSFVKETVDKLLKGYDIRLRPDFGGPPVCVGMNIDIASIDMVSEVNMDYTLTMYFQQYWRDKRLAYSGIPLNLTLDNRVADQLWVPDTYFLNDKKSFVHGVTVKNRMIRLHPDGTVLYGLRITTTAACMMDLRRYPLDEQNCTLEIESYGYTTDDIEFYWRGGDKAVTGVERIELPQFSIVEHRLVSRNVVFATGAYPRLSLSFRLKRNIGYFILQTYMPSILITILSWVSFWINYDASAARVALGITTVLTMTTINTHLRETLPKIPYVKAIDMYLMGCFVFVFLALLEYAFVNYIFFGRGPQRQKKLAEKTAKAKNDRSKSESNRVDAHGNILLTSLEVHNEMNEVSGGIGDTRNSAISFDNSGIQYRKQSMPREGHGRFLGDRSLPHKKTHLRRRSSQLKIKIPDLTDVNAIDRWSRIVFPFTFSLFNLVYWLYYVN
T1 sequence (P18507 40-467 limits assumed): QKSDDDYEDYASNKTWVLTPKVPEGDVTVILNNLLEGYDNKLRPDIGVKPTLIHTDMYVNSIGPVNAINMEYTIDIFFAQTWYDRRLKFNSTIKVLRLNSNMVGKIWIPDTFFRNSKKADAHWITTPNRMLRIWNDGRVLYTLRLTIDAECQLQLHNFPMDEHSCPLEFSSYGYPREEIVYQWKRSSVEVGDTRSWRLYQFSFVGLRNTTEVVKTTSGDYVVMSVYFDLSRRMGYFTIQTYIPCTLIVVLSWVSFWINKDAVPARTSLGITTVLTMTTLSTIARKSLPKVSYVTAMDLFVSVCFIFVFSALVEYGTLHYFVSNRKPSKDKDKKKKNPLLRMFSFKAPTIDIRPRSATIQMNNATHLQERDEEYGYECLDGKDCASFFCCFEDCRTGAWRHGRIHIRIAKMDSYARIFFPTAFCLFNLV

Sequence of GABAA α5 receptor (P19969 32-464 limits assumed): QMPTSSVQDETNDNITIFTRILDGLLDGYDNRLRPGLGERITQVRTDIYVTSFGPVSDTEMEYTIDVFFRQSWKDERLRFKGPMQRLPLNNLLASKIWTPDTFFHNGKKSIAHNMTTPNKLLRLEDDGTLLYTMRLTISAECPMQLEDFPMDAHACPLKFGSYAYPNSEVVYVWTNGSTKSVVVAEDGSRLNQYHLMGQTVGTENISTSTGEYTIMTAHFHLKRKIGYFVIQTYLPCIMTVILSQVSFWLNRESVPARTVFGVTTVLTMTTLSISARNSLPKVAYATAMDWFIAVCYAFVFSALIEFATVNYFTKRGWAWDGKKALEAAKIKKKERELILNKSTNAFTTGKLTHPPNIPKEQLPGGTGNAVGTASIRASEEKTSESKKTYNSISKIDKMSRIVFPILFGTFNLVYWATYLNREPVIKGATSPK
Sequence of GABAA α5 receptor (P18508 39-466): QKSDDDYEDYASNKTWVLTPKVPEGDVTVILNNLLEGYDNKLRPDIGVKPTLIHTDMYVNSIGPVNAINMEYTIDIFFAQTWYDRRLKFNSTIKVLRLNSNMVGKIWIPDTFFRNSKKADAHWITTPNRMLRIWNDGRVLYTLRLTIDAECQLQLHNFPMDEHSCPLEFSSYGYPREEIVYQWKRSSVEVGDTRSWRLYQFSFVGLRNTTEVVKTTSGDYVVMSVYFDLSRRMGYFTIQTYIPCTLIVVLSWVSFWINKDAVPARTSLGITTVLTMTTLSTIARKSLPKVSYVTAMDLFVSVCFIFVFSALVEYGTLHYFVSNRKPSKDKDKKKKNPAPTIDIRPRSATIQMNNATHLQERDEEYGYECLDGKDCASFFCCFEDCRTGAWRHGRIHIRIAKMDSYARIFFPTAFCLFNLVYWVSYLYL
Sequence of GABAA α5 receptor (P63079 26-473 partner): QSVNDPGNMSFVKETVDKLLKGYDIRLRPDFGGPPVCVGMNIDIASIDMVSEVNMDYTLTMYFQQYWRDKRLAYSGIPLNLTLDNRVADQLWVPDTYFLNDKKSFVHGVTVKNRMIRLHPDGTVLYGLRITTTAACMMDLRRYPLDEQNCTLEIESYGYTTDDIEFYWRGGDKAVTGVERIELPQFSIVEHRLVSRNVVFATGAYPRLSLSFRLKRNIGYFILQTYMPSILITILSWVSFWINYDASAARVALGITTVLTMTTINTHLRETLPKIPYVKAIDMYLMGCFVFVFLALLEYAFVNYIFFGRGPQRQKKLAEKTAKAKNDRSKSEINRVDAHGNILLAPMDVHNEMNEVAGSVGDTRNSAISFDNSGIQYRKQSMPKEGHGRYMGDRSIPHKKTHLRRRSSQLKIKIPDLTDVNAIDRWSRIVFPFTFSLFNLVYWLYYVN

## COC(=O)c1c(-c2ccccc2)cnnc1-c1ccccc1 [methyl 3,5-diphenylpyridazine-4-carboxylate]
GABAA α5 receptor; 0.01-10 mg/kg, i.v.
  Ro 15-4513 binding in hippocampus: blocked; also recorded: dose-dependently reduced
  cerebellum levels (binding) of Ro 15-4513: did not affect; also recorded: without affecting
GABAA α5 receptor; hippocampus, FIG. 5
  GABAA α5 receptors occupied at exposures behaviorally active in aged-impaired rats: about 32%
GABAA α5 receptor; i.v., hippocampus/cerebellum ratio method
  ED50 of receptor occupancy, ratio method: 1.8 mg/kg
GABAA α5 receptor; rat, iv, read-out: GABAA α5 receptor occupancy
  receptor occupancy at 10 mg/kg: > 90%
GABAA α5 receptor; rat, iv, read-out: receptor occupancy at an exposure of 180 ng/g in hippocampus
  receptor occupancy at 1 mg/kg: 32 to 39%
α5-containing GABAA R
  α5 in vitro efficacy (EC20): +27
